Non-standard residues stand in square brackets, D forms with d. Residues, ends and D or L forms follow the SMILES beside them. *: point of attachment. 2Nal = N[C@@H](Cc1ccc2ccccc2c1)C(=O)O; Cha = N[C@@H](CC1CCCCC1)C(=O)O; Boc = CC(C)(C)OC(=O)*
How the values were obtained:
[1] = tested on: peptide-producing enzyme (Mono S fraction) from Empedobacter brevis strain FERM BP-8113; test: Enzyme substrate specificity (1)-(10), (13), (14); type: biochemical; set-up: key: +: those for which production was confirmed but which were unable to be quantified due to the absence of a standard; a trace amount
Source text: Ester specificity was examined in the case of using L-amino acid ester for the carboxy component. […] The amounts of L-Ala-L-Gln produced in this reaction are shown in Table 4 (HCl represents hydrochloride in Table 4). Peptide production was examined in the case of using L-alanine methyl ester for the carboxy component and using various L-amino acids for the amine component. […] (The “+” mark indicates those peptides for which production was confirmed but which were unable to be quantified due to the absence of a standard, while “tr” indicates a trace amount.) Peptide production was examined in the case of using various types of L-amino acid methyl esters for the carboxy component and using L-glutamine for the amine component. […] Peptide production was examined in the case of using various L-amino acid methyl esters for the carboxy component and various L-amino acids for the amine component. […] (The “tr” indicates a trace amount.) Furthermore, Tween-80 was added to the reaction system to a final concentration of 0.1% in the case of using L-Trp-OMe. (The “+” mark indicates those peptides for which production was confirmed but which were unable to be quantified due to the absence of a standard.) […] (The “tr” indicates a trace amount.) Peptide production was examined using various L-amino acid amides for the carboxy component, and various L-amino acids for the amine component. […] Peptide production was examined in the case of using various L-alanine methyl esters for the carboxy component and C-protected L-amino acids for the amine component. […] Peptide production was examined in the case of using various amino acid methyl esters for the carboxy component and methylamine for the amine component. […] Peptide production was examined in the case of using β-amino acid ester for the carboxy component or β-amino acid for the amine component. […] (The “tr” indicates a trace amount.) Oligopeptide production was examined in the case of using L-amino acid ester for the carboxy component and peptide for the amine component. […] Substrate specificity was additionally assessed using the same enzyme fraction as that used in Example 5. […] (A “+” mark indicates those for which production was confirmed but which were unable to be quantified due to the absence of a standard, while “tr” indicates a trace amount). Substrate specificity with respect to oligopeptide production was assessed using the same enzyme fraction as Example 26. […] (A “+” mark indicates those for which production was confirmed but which were unable to be quantified due to the absence of a standard, while “tr” indicates a trace amount). It should be noted that hydrochlorides were used for all of the carboxy components.

[2] = tested on: peptide-producing enzyme (Mono S fraction) from Empedobacter brevis strain FERM BP-8113; test: Enzyme inhibitors: effect on production of L-alanyl-L-glutamine; type: biochemical; settings: for Inhibition of the enzyme (in words): serine enzyme inhibitors at 10 mM
[3] = tested on: enzyme (SP-Sepharose HP fraction) derived from Sphingobacterium sp. strain FERM BP-8124; type: biochemical; settings: pH 9.0, 25° C.
Outline: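 Purified enzyme (SP-Sepharose HP fraction, 0.33 units) reacted with carboxy components (100 mM, as hydrochlorides) and amine components (150 mM) in 100 mM borate buffer pH 9.0 with 10 mM EDTA. Reactions ran 1.5 h at 25 °C to assess peptide and oligopeptide formation.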

[4] = tested on: peptide-producing enzyme (Mono S fraction) from Empedobacter brevis strain FERM BP-8113; test: Production of L-alanyl-L-glutamine from L-alanine methyl ester and L-glutamine with enzyme fraction; type: biochemical; settings: for L-Ala-L-Gln: L-alanine methyl ester hydrochloride 100 mM, 18° C., 2 hours
Description: On the other hand, there was hardly any production of L-Ala-L-Gln observed in an enzyme-non-added lot, and the […] was only about 0.07 mM after reacting for 120 minutes.

[5] = tested on: peptide-producing enzyme (Mono S fraction) from Empedobacter brevis strain FERM BP-8113; test: Enzyme substrate specificity (1)-(10), (13), (14); type: biochemical; settings: pH 9.0, 25° C., 3 hours
Outline: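 Mono S-purified peptide-forming enzyme from Empedobacter brevis FERM BP-8113, given L-amino acid esters (hydrochlorides) or amides as carboxy component with amino acids, C-protected amino acids, methylamine, β-amino acids or peptides as amine component. Dipeptide/oligopeptide product quantified; Tween-80 0.1% added with L-Trp-OMe.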

[6] = tested on: Empedobacter brevis strain FERM BP-8113 microbial cells; test: Production of peptide using microbial cells of Empedobacter brevis; type: cell-based; settings: microbial cell suspension 100 g/L mixed 1:1 with 200 mM carboxy component and 400 mM amino acid, pH 9.0, 10 mM EDTA, 18° C., 2 hours
Description: A 50 mL medium (pH 6.2) containing 5 grams (hereinafter, “g”) of glucose, 5 g of ammonium sulfate, 1 g of monopotassium phosphate, 3 g of dipotassium phosphate, 0.5 g of magnesium sulfate, 10 g of yeast extract and 10 g of peptone in 1 liter (hereinafter, “L”) was transferred to a 500 mL Sakaguchi flask and sterilized at 115° C. for 15 minutes. This medium,was then inoculated with one loopful of the culture broth of Empedobacter brevis strain FERM BP-8113 (Depositary institution: National Institute for Advanced Industrial Science and Technology, International Patent Organism Depositary, Address of depositary institution: Chuo Dai-6, 1-1 Higashi 1-Chome, Tsukuba-shi, Ibaraki-ken, Japan, International deposit transfer date: Jul. 8, 2002) that had been cultured at 30° C. for 16 hours in the same medium, followed by shake culturing at 30° C. for 16 hours and 120 strokes/min.

[7] = inhibitor at 10 mM, pH 9.0, 25° C., 5 minutes, 100 = absence of enzyme inhibitor
[8] = oligopeptide production, amount of enzyme 0.2 units, pH 9.0, 25° C., 3 hours

## C[C@H](N)C(=O)N[C@@H](Cc1ccc2ccccc2c1)C(=O)O [H-Ala-2-Nal-OH] (H-Ala-[2Nal]-OH)
[1]; carboxy component 20 mM, amine component 20 mM, 0.1 unit enzyme, 25° C., reaction time 3 hr
  Produced peptide (mM): +

## c1cnc2c(c1)ccc1cccnc12 [o-Phenanthroline]
[2]; [7]
  Relative activity of L-Ala-L-Gln production (%): 96%

## O=S(=O)(F)Cc1ccccc1 [Phenylmethylsulfonyl fluoride]
[2]; [7]
  Relative activity of L-Ala-L-Gln production (%): 115%
[2]
  Inhibition of the enzyme (in words): not inhibited

## L-Ala-Gly-Gly-L-Phe-L-Met
[1]; [8]
  Produced peptide (mM): +

## C[C@H](N)C(=O)N[C@@H](CCC(N)=O)C(=O)O [L-Ala-L-Gln, L-alanyl-L-glutamine] (H-Ala-Gln-OH)
[3]; 10 μl SP-Sepharose HP fraction (about 27 U/ml) in 90 μl with 111 mM L-alanine methyl ester hydrochloride, 222 mM L-glutamine, 120 minutes, enzyme-added lot
  L-alanyl-L-glutamine produced: 73 mM
[3]; Table 15-4, amides or methylamine as components, 100 mM / 150 mM, 0.33 units enzyme, 1.5 hours
  Produced peptide: 0.3 mM
[4]; 3 μl enzyme fraction, 100 mM L-alanine methyl ester hydrochloride, 200 mM L-glutamine, pH 9.0, 18° C., enzyme-added lot (FIG. 3)
  L-alanyl-L-glutamine produced: 83 mM
[4]; L-glutamine 100 mM
  L-Ala-L-Gln: 68.2 mM
[4]; L-glutamine 110 mM
  L-Ala-L-Gln: 72.1 mM
[4]; L-glutamine 120 mM
  L-Ala-L-Gln: 73.3 mM
[4]; L-glutamine 130 mM
  L-Ala-L-Gln: 75.1 mM
[4]; L-glutamine 150 mM
  L-Ala-L-Gln: 75.5 mM
[4]; L-glutamine 200 mM
  L-Ala-L-Gln: 82.0 mM
[5]; 100 mM L-alanine methyl ester hydrochloride, L-amino acid 150 mM
  Produced peptide: 79.3 mM
[5]; L-amino acid amide hydrochloride 100 mM as carboxy component, L-amino acid 150 mM
  Produced peptide: 7.6 mM
[5]; L-amino acid methyl ester hydrochloride 100 mM, 150 mM L-glutamine
  Produced peptide: 74.6 mM
[6]
  Produced peptide: 68.0 mM

## N=C(N)Nc1ccc(C(=O)Oc2ccc([N+](=O)[O-])cc2)cc1 [p-Nitrophenyl-p′-guanidino benzoate, p-nitrophenyl-p′-guanidinobenzoate]
[2]; [7]
  Relative activity of L-Ala-L-Gln production (%): 0.1%
[2]
  Inhibition of the enzyme (in words): inhibited

## O=C(O)CI [Monoiodoacetate]
[2]; pH 9
  Relative activity of L-Ala-L-Gln production (%): 101%

## L-Ala-L-Phe-L-Met
[1]; [8]
  Produced peptide (mM): +

## L-Ala-Gly-L-Phe
[1]; oligopeptide production, amount of enzyme 0.1 units, pH 9.0, 25° C., 3 hours
  Produced peptide (mM): +

## CC(C)(C)OC(=O)NCCCC[C@H](N)C(=O)N[C@@H](CCC(N)=O)C(=O)O [H-Lys(Boc)-Gln-OH] (H-Lys(Boc)-Gln-OH)
[1]; carboxy component 100 mM, amine component 150 mM, 0.1 unit enzyme, 25° C., reaction time 2 hr
  Produced peptide (mM): +

## N[C@@H](CC1CCCCC1)C(=O)N[C@@H](Cc1ccccc1)C(=O)O [H-CHA-Phe-OH] (H-[Cha]-Phe-OH)
[1]; carboxy component 40 mM, amine component 40 mM, 0.1 unit enzyme, 25° C., reaction time 3 hr
  Produced peptide (mM): +

## CCN1C(=O)C=CC1=O [N-Ethyl maleimide]
[2]; [7]
  Relative activity of L-Ala-L-Gln production (%): 110%

## L-Ala-L-Ala-L-Gln
[4]; 3 μl enzyme fraction, 100 mM L-alanine methyl ester hydrochloride, 200 mM L-glutamine, pH 9.0, 18° C., enzyme-added lot
  concentration of by-product: 1.3 mM
[5]; L-amino acid ester 100 mM, amino acid or peptide amine component 150 mM
  Produced peptide: 15.2 mM

## O=C(O)CN(CCN(CC(=O)O)CC(=O)O)CC(=O)O [EDTA, ethylenediaminetetraacetic acid]
[2]; [7]
  Relative activity of L-Ala-L-Gln production (%): 96%
